Data from US10550130B2, “Benzo-thiazolo-imidazole compounds and uses thereof” (KING SAUD UNIVERSITY, priority 2015, dated 2020).

Key:
Numb = test: Immunofluorescence of Numb in MDA-MB-231 breast cancer cells; format: cell-based; settings: MDA-MB-231 cells; 0.01, 0.1, 1 or 10 μM
Experimental: (§1) MDA-MB-231 breast cancer cells were treated either with vehicle (control) or with 0.01 μM, 0.1 μM, 1 μM or 10 μM final concentration of doxorubicin, taxotere or KSA-101696. Then, the cells were cytospun to glass slides by centrifugation at 800 rpm for 3 min. Slides were then air-dried overnight and 4% formaldehyde fixed for 10 min. For staining, the cell membrane was permeabilized with 0.5% triton-X (Sigma) followed by overnight incubation with primary antibodies (anti-Numb, Abcam) and (anti-intracellular Notch-1, Cell Signalling) at 1:100. Cells were washed and stained with AlexaFluor goat anti-rabbit IgG 488 (Invitrogenat) 1:400 for 30 minutes. 300 nM DAPI (Invitrogen, Carlsbad, Calif., USA) was added for 10 minutes to counterstain the nuclei. Slides were mounted and immunofluorescence was visualized using BD Pathway 855 microscope.
(§2) Numb exerts its functional role on cell fate decisions by antagonizing Notch signaling activities. The molecular mechanisms underlying this relationship appear to rely on the ubiquitination of the membrane bound Notch-1 receptor and the subsequent degradation of its NICD (Notch intracellular domain) following receptor activation.

MCF-7 = test: Cell proliferation by 3H-thymidine uptake assay; format: cell-based; settings: Homo sapiens, MCF7, 72 h, read-out: IC50, growth inhibition (3H-thymidine uptake)
Experimental: (§3) In vitro antitumor activity of the compound was assessed by ^3H-thymidine uptake. The cells were treated and they were about 60% confluent. Cells were seeded at 4×10^3 cells per well in a 96 well plate in DMEM containing 10% FBS for 24 h followed by treatment with control media (0.1% DMSO) or media containing different concentration of the compound incubated for 72 h at 37° C. in 5% CO2. Cells were labelled by addition of ^3H-thymidine (Amersham, Chiltern Hills, London, UK) at 1 μCi/well for 18 h before harvesting. ^3H-thymidine uptake was measured using a 1450 Micro Beta PLUS liquid scintillation counter (Wallac, Waltham, Mass., USA).
(§4) In another experiment, the in vitro antitumor activity of the compound was assessed by a 3H-thymidine uptake experiment. To this end, cells of the tumor cell lines MCF-7, SKBR3 and MDA-MB-468 were seeded at 4×10^3 cells per well in a 96 well plate in DMEM containing 10% FBS for 24 h followed by treatment with control media (0.1% DMSO) or media containing different concentration of the compound (5 μM, 10 μM, 20 μM, 40 μM or 80 μM final concentration of KSA-101696) and incubated for 72 h at 37° C. in 5% CO2. At about 60% confluency, cells were labelled by addition of 3H-thymidine (Amersham, Chiltern Hills, London, UK) at 1 μCi/well for 18 h before harvesting. 3H-thymidine uptake was measured using a 1450 Micro Beta PLUS liquid scintillation counter (Wallac, Waltham, Mass., USA).

MDA-MB-468 = test: Cell proliferation by 3H-thymidine uptake assay; format: cell-based; settings: Homo sapiens, 72 h, read-out: IC50, growth inhibition (3H-thymidine uptake)
Experimental: as §3, §4

SKBR3 = test: Cell proliferation by 3H-thymidine uptake assay; format: cell-based; settings: Homo sapiens, SK-BR-3, 72 h, read-out: IC50, growth inhibition (3H-thymidine uptake)
Experimental: as §3, §4

HT-29 colon cancer cells = test: CD133 expression by flow cytometry; format: cell-based; settings: 10 μM, 48 h
Experimental: In a further experiment, HT-29 colon cancer cells were cultured in 6 well plates and treated by KSA-101696 (10 μM) or vehicle for 48 h. Then, cells were collected and stained with a CD133 antibody and analyzed by flow cytometry.

intracellular Notch-1 = test: Immunofluorescence of intracellular Notch-1 in MDA-MB-231 breast cancer cells; format: cell-based; settings: MDA-MB-231 cells; FIGS. 1B and 1C
Experimental: as §1, §2

[1] = Determination of LD50 value
Experimental: Swiss Webster Albino mice were housed in groups of 2 or 4 in elevated steel wire-mesh cages in a controlled room maintained at a temperature of 22±2° C., relative humidity of 50±10% and a 12 h light-dark cycle. Rodent diet chow (feed) provided by Grain Silos Flour Mills Organization, Riyadh, Saudi Arabia, and tap water for drinking were made available ad lib.
Male mice were divided into various groups (n=10 animals per group). Each group was administered a different dose of the respective compound via the intraperitoneal (i.p.) route. The dose range used was 100-5000 mg/kg.
During the observation periods there was a continuous record of any behavioral changes and clinical symptoms that caused by effects on the central and autonomic nervous systems, the respiratory and the cardiovascular systems or any other action on the gastrointestinal tract, the renal systems, eye, skin, skeletal muscles etc.
During the 72 hour observation period the number of animals that died in every group was recorded. The percentage of death calculated and converted to probits to calculate the LD50 value for each compound in mg/kg. The LD50 value reported in this study provided compounds in their liquid form in the provided concentrations.

SP cells of MCF-7 = test: Mammosphere formation assay; format: cell-based
Experimental: (§5) Cell were harvested and counted by using trypan blue to exclude the dead cells. Cells cultured in suspension (1000 cells/100 μL) in serum-free mammary epithelium basal medium, supplemented with B27 supplement 1:50; (GIBCO), 20 ng/mL EGF (epidermal growth factor; Preprotech), 5 μg/mL insulin (Sigma), 1% Antibiotic-Antimycotic (GIBCO) and 0.5 μg/ml hydrocortisone (Sigma), as described previously (Dontu et al.). Mammospheres were allowed to grow for 7 days, then treated for 72 h by either control media (0.1% DMSO) or media containing different concentrations of the compound. Mammospheres were counted on a Leitz Labovert inverted Microscope. Mammosphere size was measured and a picture was taken on a Evos transmitted light microscope.
(§6) It is known that one of the properties of stem/progenitor cells is their ability to survive under anchorage-independent conditions and generate mammospheres, which are composed of a small number of stem cells. Given that CSCs generally make up for a small minority of the cells within cancer cell populations, the dye DyeCycle Violet was used to isolate SP cells (side population cells; the side population is enriched for stem/progenitor cells), through a BD FACSAria™ cell sorter. Subsequently, the isolated SP cells were used in a Mammosphere Formation Assay. SP cells of MCF-7 and BT-474 formed more mammospheres than non-SP cells (see FIG. 4A).
(§7) Treatment of 7 days old mammospheres of both cell lines with 5 μM of KSA-101696 decreased the number of mammospheres formed by 50% compared to DMSO treatment (FIG. 4A).

SP cells of BT-474 = test: Mammosphere formation assay; format: cell-based; settings: 5 μM, 7 days old mammospheres
Experimental: as §5, §6, §7

With `COc1ccc(-c2csc3nc4ccccc4n23)cc1` [KSA-101696, 3-(4-methoxyphenyl)benzo[4,5]imidazo[2,1-b]thiazole] the “Numb expression (immunofluorescence microscopy)” value (Numb) was “induced Numb”, the IC50 (MCF-7) was about 5 µM and the IC50 (MDA-MB-468) was about 2.5 µM. For the same compound, the IC50 (SKBR3) was 7.5 µM, the “expression of colon cancer stem cell marker CD133” value (HT-29 colon cancer cells) was “inhibition in the expression of the colon cancer stem cell marker CD133” and the “concentration inhibiting intracellular Notch-1 by activating Numb expression” value (intracellular Notch-1) was 0.625 µM. For the same compound, the “Therapeutic ratio = LD50/ED50” value ([1]; intraperitoneal) was 40, the LD50 at 72 h ([1]; male, Swiss Webster Albino, mouse, in vivo, ip) was 2000 mg/kg and the “decrease of number of mammospheres formed compared to DMSO” value (SP cells of MCF-7; MCF-7, 5 μM, 7 days old mammospheres) was 50%. The “size of treated mammospheres” value (SP cells of MCF-7; cell line not specified (FIG. 4B)) was “reduction in the size” and the “decrease of number of mammospheres formed compared to DMSO” value (SP cells of BT-474) was 50%.
